Laboratory results as given in PMC10133546, “Simultaneous determination of multiple components in rat plasma by UHPLC-sMRM for pharmacokinetic studies after oral administration of Qingjin Yiqi Granules” (Frontiers in Pharmacology, 2023).
Like-named read-outs stand apart in the source and are kept apart here.

Experiments:
[1] = Stability of the working solution (4°C for 1 month); format: physicochemical
[2] = Stability of analytes in rat plasma (auto-sampler, freeze-thaw, room temperature, long-term); details: for Room temperature for 24 h Accuracy (%): room temperature 24 h; for Freeze thaw cycles Accuracy (%): three freeze-thaw cycles; for −80°C for 1month Accuracy (%): −80°C 1 month; for Autosampler for 24 h Accuracy (%): autosampler 24 h
[3] = Pharmacokinetic study in rat plasma after oral administration of QJYQ (UHPLC-sMRM); format: in vivo, Sprague-Dawley rats
Description: Exion LC AD tandem Blueline 3500 triple quadrupole mass spectrometer (AB SCIEX, Framingham, MA, United States) was used to thirty-three compounds in rat plasma. […] The whole detailed parameters of sMRM were obtained in Supplementary Table S1.
Rat plasma (100 μL) was mixed with 10% formic acid (10 μL) and vortexed for 1 min at room temperature. ISs (10 μL) and methanol/acetonitrile (1/1, v/v) (400 μL) were added and vortexed for 5 min, then centrifuged for 10 min at 14,000 rpm and 4°C. The transported supernatant was condensed to dryness under the flow of nitrogen gas. The dried residue was reconstituted with 70% methanol (100 μL) by vortex-mixing for 5 min and centrifuging at 14,000 rpm for 10 min. Last, 2 μL of the solution were injected into the UHPLC-sMRM system.
The pharmacokinetic study was approved by the Animal Ethics Committee of Tianjin University of Traditional Chinese Medicine (TCM-LAEC2021228). Ten male Sprague-Dawley rats (weight 220–240 g) was kept at the animal center of Tianjin University of Traditional Chinese Medicine (Tianjin, China). […] The sample was transferred right away following a 10 min period of centrifugation at 7000 rpm and 4°C. All plasma samples were frozen and stored at −80°C.
All the pharmacokinetic parameters were calculated using the DAS 1.0 software (Drug and Statistics 1.0, Medical College of Wannan, China). Pharmacokinetic parameters include the maximum drug concentration in plasma (Cmax), the time to achieve maximum drug concentration (Tmax), the area under the plasma concentration-time curve (AUC), elimination half-life (T1/2), and mean residence time (MRT). The pharmacokinetic parameters were computed using the non-compartmental model. All data are expressed as mean ± standard deviation (SD). GraphPad Prism 8.0 (GraphPad Software Inc., La Jolla, CA, United States) software was used to draw the drug-time curve.

[4] = rat plasma, oral QJYQ 3.15 g/kg, n = 8, mean ± SD

Row | SMILES | Working solution Accuracy (%) ([1]; 100 ng/mL) | Autosampler for 24 h Accuracy (%) ([2]; 100 ng/mL) | Room temperature for 24 h Accuracy (%) ([2]; 100 ng/mL) | Freeze thaw cycles Accuracy (%) ([2]; 100 ng/mL) | Autosampler for 24 h Accuracy (%) ([2]; 500 ng/mL) | Freeze thaw cycles Accuracy (%) ([2]; 500 ng/mL) | −80°C for 1month Accuracy (%) ([2]; 500 ng/mL) | Room temperature for 24 h Accuracy (%) ([2]; 500 ng/mL) | Working solution Accuracy (%) ([1]; 50 ng/mL) | Room temperature for 24 h Accuracy (%) ([2]; 50 ng/mL) | Freeze thaw cycles Accuracy (%) ([2]; 50 ng/mL) | −80°C for 1month Accuracy (%) ([2]; 50 ng/mL) | −80°C for 1month Accuracy (%) ([2]; 100 ng/mL) | Autosampler for 24 h Accuracy (%) ([2]; 12.5 ng/mL) | Room temperature for 24 h Accuracy (%) ([2]; 12.5 ng/mL) | Freeze thaw cycles Accuracy (%) ([2]; 12.5 ng/mL) | −80°C for 1month Accuracy (%) ([2]; 12.5 ng/mL) | Autosampler for 24 h Accuracy (%) ([2]; 50 ng/mL) | Working solution Accuracy (%) ([1]; 12.5 ng/mL) | Working solution Accuracy (%) ([1]; 500 ng/mL) | further results
1 | COc1ccc([C@@H]2CC(=O)c3c(O)cc(O[C@@H]4O[C@H](CO[C@@H]5O[C@@H](C)[C@H](O)[C@@H](O)[C@H]5O)[C@@H](O)[C@H](O)[C@H]4O)cc3O2)cc1O [hesperidin] | 102.0 | 96.0 | 92.3 | 95.7 | 87.8 | 89.1 | 93.6 | 92.3 | 109.0 | 93.7 | 85.4 | 85.8 | 93.1 | 82.1 | 84.1 | 94.3 | 81.8 | 100.0 | 81.7 | 91.0 | AUC(0-t) [3, 4]: 1058.05 ± 267.32 ng·h/mL; AUC(0-∞) [3, 4]: 1058.06 ± 267.32 ng·h/mL; Cmax [3, 4]: 604.36 ± 145.25 ng/mL; MRT (0-∞) [3, 4]: 4.52 ± 0.54 h; MRT(0-t) [3, 4]: 4.52 ± 0.54 h; T1/2 [3, 4]: 1.94 ± 0.03 h
2 | COc1cc(/C=C/C(=O)O)ccc1O [ferulic acid] | 88.3 | 91.5 | 86.7 | 115.0 | 93.6 | – | 107.0 | – | 96.8 | 96.8 | 98.3 | 90.9 | 95.9 | 84.5 | 104.0 | 96.0 | 115.0 | 86.9 | 87.7 | 96.7 | MRT ([3]; rat plasma, oral QJYQ 3.15 g/kg, MRT type not specified): greater than 8 h; AUC(0-t) [3, 4]: 173.23 ± 5.66 ng·h/mL; AUC(0-∞) [3, 4]: 176.72 ± 28.57 ng·h/mL; Cmax [3, 4]: 51.71 ± 10.68 ng/mL; MRT (0-∞) [3, 4]: 8.43 ± 0.53 h; MRT(0-t) [3, 4]: 8.40 ± 0.20 h; T1/2 [3, 4]: 2.12 ± 0.07 h
3 | COc1cc(/C=C/C(=O)O)cc(OC)c1O [sinapic acid] | 94.2 | – | – | – | – | – | – | – | – | – | – | – | – | – | – | – | – | – | 90.2 | 87.0 | Working solution Accuracy (%) ([1]; 1.56 ng/mL): 100.0%; AUC(0-t) ([3]; rat, in vivo, po, 3.15 g/kg): 86.98 ± 6.62 ng·h/mL; AUC(0-∞) ([3]; rat, in vivo, po, 3.15 g/kg): 86.99 ± 6.62 ng·h/mL; Cmax ([3]; rat, in vivo, po, 3.15 g/kg): 26.77 ± 7.87 ng/mL; MRT (0-∞) ([3]; rat, in vivo, po, 3.15 g/kg): 6.28 ± 0.91 h; MRT(0-t) ([3]; rat, in vivo, po, 3.15 g/kg): 6.28 ± 0.91 h; T1/2 ([3]; rat, in vivo, po, 3.15 g/kg): 2.20 ± 0.13 h

Second part, led by results:

Row | Working solution Accuracy (%) ([1]; 100 ng/mL) | Autosampler for 24 h Accuracy (%) ([2]; 100 ng/mL) | Room temperature for 24 h Accuracy (%) ([2]; 100 ng/mL) | Freeze thaw cycles Accuracy (%) ([2]; 100 ng/mL) | Autosampler for 24 h Accuracy (%) ([2]; 500 ng/mL) | Freeze thaw cycles Accuracy (%) ([2]; 500 ng/mL) | −80°C for 1month Accuracy (%) ([2]; 500 ng/mL) | Room temperature for 24 h Accuracy (%) ([2]; 500 ng/mL) | SMILES | Working solution Accuracy (%) ([1]; 50 ng/mL) | Room temperature for 24 h Accuracy (%) ([2]; 50 ng/mL) | Freeze thaw cycles Accuracy (%) ([2]; 50 ng/mL) | −80°C for 1month Accuracy (%) ([2]; 50 ng/mL) | −80°C for 1month Accuracy (%) ([2]; 100 ng/mL) | Autosampler for 24 h Accuracy (%) ([2]; 12.5 ng/mL) | Room temperature for 24 h Accuracy (%) ([2]; 12.5 ng/mL) | Freeze thaw cycles Accuracy (%) ([2]; 12.5 ng/mL) | −80°C for 1month Accuracy (%) ([2]; 12.5 ng/mL) | Autosampler for 24 h Accuracy (%) ([2]; 50 ng/mL) | Working solution Accuracy (%) ([1]; 12.5 ng/mL) | Working solution Accuracy (%) ([1]; 500 ng/mL) | further results
4 | 95.7 | 88.3 | 87.5 | 86.2 | 104.0 | 95.6 | 106.0 | – | COc1ccc(/C=C/C(=O)O)cc1O [isoferulic acid] | 100.0 | 108.0 | 95.7 | 90.8 | 85.5 | – | – | – | – | – | – | – | Working solution Accuracy (%) ([1]; 200 ng/mL): 104.0%; Autosampler for 24 h Accuracy (%) ([2]; 200 ng/mL): 102.0%; Room temperature for 24 h Accuracy (%) ([2]; 200 ng/mL): 87.2%; half-life ([3]; male, Sprague-Dawley, rat plasma, oral QJYQ 3.15 g/kg, n = 8, mean ± SD): 4.68 ± 0.41 h; AUC(0-t) ([3]; male, Sprague-Dawley, rat plasma, oral QJYQ 3.15 g/kg, n = 8, mean ± SD, read-out: AUC(0-t)): 347 ± 120 ng·h/mL; AUC(0-inf) ([3]; male, Sprague-Dawley, rat plasma, oral QJYQ 3.15 g/kg, n = 8, mean ± SD, read-out: AUC(0-∞)): 354 ± 132 ng·h/mL; Cmax ([3]; male, Sprague-Dawley, rat plasma, oral QJYQ 3.15 g/kg, n = 8, mean ± SD, read-out: Cmax): 235 ± 81.1 ng/mL; MRT inf ([3]; male, Sprague-Dawley, rat plasma, oral QJYQ 3.15 g/kg, n = 8, mean ± SD, read-out: MRT (0-∞)): 5.85 ± 3.26 h; MRT last ([3]; male, Sprague-Dawley, rat plasma, oral QJYQ 3.15 g/kg, n = 8, mean ± SD, read-out: MRT(0-t)): 5.25 ± 2.87 h
5 | – | 96.9 | 105.0 | 95.5 | 85.5 | 96.9 | 94.3 | 94.3 | O=C(/C=C/c1ccc(O)c(O)c1)O[C@@H]1C[C@](O)(C(=O)O)C[C@@H](O)[C@H]1O [chlorogenic acid] | – | 106.0 | – | 115.0 | – | 94.6 | 97.3 | 100.0 | 98.3 | 97.5 | – | – | detection in rat plasma ([3]; rat plasma after oral QJYQ 3.15 g/kg): not detected
6 | 88.5 | 94.1 | 90.4 | 86.4 | 85.5 | 88.3 | 108.0 | 104.0 | O=C(O)[C@H]1O[C@@H](Oc2cc(O)c3c(=O)cc(-c4ccc(O)cc4)oc3c2)[C@H](O)[C@@H](O)[C@@H]1O [apigenin-7-O-glucuronide] | – | – | – | – | 85.0 | 93.2 | 92.2 | 85.6 | 86.0 | – | 112.0 | 93.2 | Working solution Accuracy (%) ([1]; 1.56 ng/mL): 83.6%; Autosampler for 24 h Accuracy (%) ([2]; 1.56 ng/mL): 103.0%; Room temperature for 24 h Accuracy (%) ([2]; 1.56 ng/mL): 114.0%; Freeze thaw cycles Accuracy (%) ([2]; 1.56 ng/mL): 109.0%; −80°C for 1month Accuracy (%) ([2]; 1.56 ng/mL): 104.0%; AUC(0-t) ([3]; rat, in vivo, po, 3.15 g/kg): 14603.11 ± 7523.95 ng·h/mL; AUC(0-∞) ([3]; rat, in vivo, po, 3.15 g/kg): 15028.42 ± 7667.50 ng·h/mL; Cmax ([3]; rat, in vivo, po, 3.15 g/kg): 167.50 ± 108.49 ng/mL; MRT ([3]; rat, in vivo, po, 3.15 g/kg): greater than 8 h; MRT (0-∞) ([3]; rat, in vivo, po, 3.15 g/kg): 8.62 ± 1.65 h; MRT(0-t) ([3]; rat, in vivo, po, 3.15 g/kg): 8.39 ± 1.62 h; T1/2 ([3]; rat, in vivo, po, 3.15 g/kg): 4.17 ± 1.51 h; Tmax ([3]; rat, in vivo, po, 3.15 g/kg): 4.65 ± 2.79 h
